# Assay results as given in US10071244B2, “Thoracoscopic electroporation device with a suction head and with needle electrodes” (UNIVERSITY COLLEGE CORK—NATIONAL UNIVERSITY OF IRELAND, CORK, priority 2012, dated 2018).
# Tested on: tumour tissue
# Test: Evans Blue perfusion test in tumour-bearing mouse
# Format: in vivo
# Source text: FIG. 53 illustrates the result of an Evans Blue perfusion test;
# Perfusion • A. One of the physiological impediments reducing the efficacy of chemotherapy relates to the poor diffusion of the drug from the capillaries through to the interstitial spaces surrounding the tumour cells. Poor lymphatic drainage and an irregular vasculature leads to the tumour interstitial pressure increasing with time as the tumour grows. This positive pressure is the opposite of normal tissue where a slightly negative interstitial pressure allows for convection of molecules across the capillaries. See FIG. 51 in which the X-axis represents the tumour volume in cm^3, Y-axis represents tumour interstitial pressure readings in mmHg. Each dot represents one TIP reading at a given tumour volume. Linear line represents correlation coefficients between tumour volume and TIP. • B. The positive pressure within the tumour tissue can be immediately negated through the placement of a vacuum directly on the tumour tissue. […] This facilitates better drug perfusion throughout the tumour interstitial spaces (between the cells) by allowing convection of macromolecules from the capilliaries to the […]. • C. This correction allows for perfusion of the chemotherapy from the capillaries into the tumour tissue. […]
compound,measurement,setting,value
Cc1cc(-c2ccc(/N=N/c3ccc4c(S(=O)(=O)O)cc(S(=O)(=O)O)c(N)c4c3O)c(C)c2)ccc1/N=N/c1ccc2c(S(=O)(=O)O)cc(S(=O)(=O)O)c(N)c2c1O [Evans blue],"dye perfusion into tumour, no vacuum","15 mins after injection into blood supply, tumour excised and dissected",only the periphery has absorbed the dye
same,"dye perfusion into tumour, with vacuum",vacuum applied to the tumour for 1 minute at 200 mmHg of negative pressure,Deep permeation of the dye is achieved throughout the tumour tissue
